Each structure is given as a SMILES string. Values joined by “and” are separate entries in the source; they are usually repeats but may differ in a detail not shown here. Equal entries are not always repeated. Bounds are passed on as bounds.

In test [1] the target is T1, Genome polyprotein (dengue virus type 2, UniProt P29990). Format: functional, Thailand/16681/1984.
Test [2] has as its target T1, Genome polyprotein. In kind it is functional, Thailand/16681/1984. This is another data set of the same source.

T1 sequence (P29990 1346-1475 limits assumed): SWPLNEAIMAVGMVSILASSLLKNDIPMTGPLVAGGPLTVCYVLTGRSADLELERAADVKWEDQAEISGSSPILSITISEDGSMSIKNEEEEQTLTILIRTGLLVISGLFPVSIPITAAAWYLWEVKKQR
T1 sequence (P29990 1476-2093 limits assumed): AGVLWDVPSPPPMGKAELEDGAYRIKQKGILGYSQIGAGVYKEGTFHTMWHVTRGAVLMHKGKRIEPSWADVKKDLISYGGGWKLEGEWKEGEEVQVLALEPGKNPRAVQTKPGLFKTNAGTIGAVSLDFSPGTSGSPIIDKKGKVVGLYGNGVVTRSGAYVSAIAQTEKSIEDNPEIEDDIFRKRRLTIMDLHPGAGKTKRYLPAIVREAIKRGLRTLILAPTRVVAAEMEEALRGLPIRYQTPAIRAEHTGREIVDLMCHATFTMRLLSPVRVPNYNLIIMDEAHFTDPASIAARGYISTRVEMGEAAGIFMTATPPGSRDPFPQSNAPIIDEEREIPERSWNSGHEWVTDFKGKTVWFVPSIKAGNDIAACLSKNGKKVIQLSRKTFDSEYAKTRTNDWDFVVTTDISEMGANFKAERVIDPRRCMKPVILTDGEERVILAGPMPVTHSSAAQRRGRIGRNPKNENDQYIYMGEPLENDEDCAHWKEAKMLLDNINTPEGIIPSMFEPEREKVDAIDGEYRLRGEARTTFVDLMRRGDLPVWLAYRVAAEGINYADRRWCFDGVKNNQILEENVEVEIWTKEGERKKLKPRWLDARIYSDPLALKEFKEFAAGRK

Usually IC50 stands for the concentration that inhibits the measured activity by half. A high value points to lower potency. As for `Cc1cc(C(=O)Nc2ccc3c(c2)CNC3)c2cnn(C)c2n1`, the IC50 on Genome polyprotein [1] was greater than 99.5 µM; against Genome polyprotein [2], greater than 100 µM.
For `O=C(NC[C@H]1CCCO1)[C@H](Nc1ccc2c(c1)CNC2)c1cc(Cl)cc2[nH]ncc12` the same measures were greater than 99.5 µM and greater than 100 µM.
In the case of `Cc1cccc(CNc2ccc(Cl)cc2C(=O)Nc2ccc3c(c2)CNC3)n1`, the values for the IC50 at Genome polyprotein [1] and against Genome polyprotein [2] were greater than 99.5 µM and greater than 100 µM, respectively.
For `COc1cc(Br)cc2c1NC(=O)[C@]2(Nc1ccc2c(c1)CNC2)C(N)=O` the same measures were greater than 99.5 µM and greater than 100 µM.
`O=C(Nc1ccc2c(c1)CNC2)c1cccc(-c2cnco2)c1`: the IC50 at Genome polyprotein [1] was 27.6 µM; on Genome polyprotein [2] it was 57.7 µM and 70.3 µM.
Turning to `N#Cc1cc(Cl)cc(C(=O)Nc2ccc3c(c2)CNC3)c1`, the IC50 at Genome polyprotein [1] is greater than 99.5 µM; against Genome polyprotein [2], greater than 100 µM.
Take `Cn1cc2cc(Cl)cc(C(=O)Nc3ccc4c(c3)CNC4)c2n1`: the IC50 against Genome polyprotein [1] was greater than 99.5 µM; at Genome polyprotein [2], 69.9 µM and > 100 µM.
Consider `COCCOc1ccc(Cl)cc1C(=O)Nc1ccc2c(c1)CNC2`, for which the IC50 on Genome polyprotein [1] is greater than 99.5 µM; against Genome polyprotein [2] it was greater than 100 µM.
For `O=C(Nc1ccc2c(c1)CNC2)N1C[C@H](C2CC2)C[C@@H]1C1CC1` the same measures were greater than 99.5 µM and greater than 100 µM.
For `O=C(Nc1ccc2c(c1)CNC2)c1nc2ccccc2s1` the same measures were greater than 99.5 µM and 87.8 µM.
For `O=C(NCc1ccc2c(c1)CCNC2)c1cc(Cl)cc2[nH]ncc12` the same measures were greater than 99.5 µM and greater than 100 µM.
Take `CCc1ncc(Cl)cc1C(=O)Nc1ccc2c(c1)CNC2`: the IC50 against Genome polyprotein [1] is greater than 99.5 µM; against Genome polyprotein [2], greater than 100 µM.
For `N#CCCNC(=O)[C@H](Nc1ccc2c(c1)CNC2)c1cc(Cl)cc(C2CC2)c1` the same measures were greater than 99.5 µM and greater than 100 µM.
For `Cc1nc2cc(Cl)ccc2cc1C(=O)Nc1ccc2c(c1)CNC2` the same measures were greater than 99.5 µM and greater than 100 µM.
For `C[C@H]1C[C@H](c2cccc(CN)c2)[C@@H](c2cc(Cl)cc(NC(=O)OCc3ccccc3)c2)C1`, the figures for the IC50 at Genome polyprotein [1] and at Genome polyprotein [2] were 55.7 µM and 77.6 µM, respectively.
For `O=C(Nc1ccc2c(c1)CNC2)c1cc(Br)cc2[nH]c([C@H]3CCOC3)nc12` the same measures were 98.5 µM and greater than 100 µM.
For `CNC(=O)[C@H](Nc1ccc2c(c1)CNC2)c1cc(Cl)cc(C2CC2)c1` the same measures were greater than 99.5 µM and greater than 100 µM.
Regarding `Cn1ncc(C(=O)Nc2cc(CCCN)ccn2)c1O`, the IC50 against Genome polyprotein [1] was greater than 99.5 µM; against Genome polyprotein [2], greater than 100 µM.
For `O=C(Nc1ccc2c(c1)CNC2)C1(c2ccc(Cl)cc2)CCCC1` the same measures were greater than 99.5 µM and greater than 100 µM.
Regarding `N#C[C@H](Nc1ccc2c(c1)CNC2)c1cc(Cl)cc(C2CC2)c1`, the half-maximal inhibitory concentration (IC50) is greater than 99.5 µM against Genome polyprotein [1] and greater than 100 µM at Genome polyprotein [2].
For `O=C1Cc2c(cccc2C(=O)Nc2ccc3c(c2)C(=O)OC3)N1` the same measures were greater than 99.5 µM and greater than 100 µM.
For `C[C@H]1Oc2c(cccc2C(=O)Nc2ccc3c(c2)CNC3)NC1=O` the same measures were 89.3 µM and 90.4 µM.
For `CCCN1C(=O)[C@](Nc2ccc3c(c2)CNC3)(C(N)=O)c2cc(Cl)ccc21` the same measures were greater than 99.5 µM and greater than 100 µM.
For `Cc1c(C(=O)Nc2cc3c(cn2)OCC3)cc(C2CC2)n1C`, the half-inhibitory concentration (IC50) on Genome polyprotein [1] is greater than 99.5 µM; on Genome polyprotein [2] it was greater than 100 µM.
For `O=C(Nc1ccc2c(c1)CNC2)c1cc(Br)cc2[nH]c(C3CCOCC3)nc12` the same measures were greater than 99.5 µM and greater than 100 µM.
Take `CC(C)COc1ccc(Cl)cc1C(=O)Nc1ccc2c(c1)CNC2`: the IC50 was greater than 99.5 µM on Genome polyprotein [1] and greater than 100 µM against Genome polyprotein [2].
As for `CC(C)(C)O[C@H]1CCCN(C(=O)Nc2ccc3c(c2)CNC3)C1`, the results for the IC50 against Genome polyprotein [1] and on Genome polyprotein [2] were greater than 99.5 µM and greater than 100 µM, respectively.
For `CC1(C)CN(C(=O)Nc2ccc3c(c2)CNC3)CC(F)(F)C1` the same measures were greater than 99.5 µM and greater than 100 µM.
For `CNC(=O)[C@]1(Nc2ccc3c(c2)CNC3)C(=O)Nc2ccc(Cl)cc21` the same measures were greater than 99.5 µM and greater than 100 µM.
For `NS(=O)(=O)c1cc(Cl)cc(C(=O)Nc2ccc3c(c2)CNC3)c1` the same measures were greater than 99.5 µM and greater than 100 µM.
On to `O=C(Nc1ccc2c(c1)CNC2)c1cc2ccccc2[nH]1`, for which the results for the IC50 against Genome polyprotein [1] and on Genome polyprotein [2] were greater than 99.5 µM and greater than 100 µM, respectively.
With `Cc1ccc2cc(Cl)cc(C(=O)Nc3ccc4c(c3)CNC4)c2n1`, the IC50 on Genome polyprotein [1] is 85.7 µM; at Genome polyprotein [2], 53.2 µM and > 100 µM.
`Cn1cc(CCc2nc3c(C(=O)Nc4ccc5c(c4)CNC5)cc(Cl)cc3[nH]2)cn1`: the IC50 against Genome polyprotein [1] is 32.5 µM; on Genome polyprotein [2], 19.4 µM and 21.6 µM.
Take `O=C(Nc1cnc2c(c1)CNCC2)c1cc(Cl)cc2[nH]ncc12`: the figures for the IC50 on Genome polyprotein [1] and against Genome polyprotein [2] were greater than 99.5 µM and greater than 100 µM, respectively.
For `N#C[C@H](Nc1ccc2c(c1)CNC2)c1ccnc(C(F)(F)F)c1` the same measures were greater than 99.5 µM and greater than 100 µM.
For `O=C(Nc1ccc2c(c1)CNC2)c1cc(Cl)ccc1OCC(F)(F)F` the same measures were greater than 99.5 µM and greater than 100 µM.
For `O=C(Nc1ccc2c(c1)CNC2)c1cc(Cl)nc2[nH]ncc12` the same measures were greater than 99.5 µM and greater than 100 µM.
Regarding `Cc1c(C(=O)Nc2cc(CN(C)C)ccn2)cc(C2CC2)n1C`, the IC50 on Genome polyprotein [1] was greater than 99.5 µM; against Genome polyprotein [2] it was greater than 100 µM.
With `C#Cc1ccnc(NC(=O)c2cc(C3CC3)n(C)c2C)c1`, the IC50 at Genome polyprotein [1] is greater than 99.5 µM; against Genome polyprotein [2] it was greater than 100 µM.
For `O=C(Nc1ccc2c(c1)CNC2)N1CCC[C@](O)(c2ccccc2)C1` the same measures were greater than 99.5 µM and greater than 100 µM.
For `O=C(Nc1ccc2c(c1)CNC2)N1CCC[C@H](CC2CCC2)C1` the same measures were greater than 99.5 µM and greater than 100 µM.
For `O=C1CCN(c2cc(Cl)cc(C(=O)Nc3ccc4c(c3)CNC4)c2)C(=O)N1` the same measures were greater than 99.5 µM and greater than 100 µM.
Consider `NCCCc1ccnc(NC(=O)c2cnn3c2CCC3)c1`, for which the IC50 at Genome polyprotein [1] is greater than 99.5 µM; at Genome polyprotein [2], greater than 100 µM.
On to `CCS(=O)(=O)c1ccc(Cl)cc1C(=O)Nc1ccc2c(c1)CNC2`, for which the IC50 is greater than 99.5 µM against Genome polyprotein [1] and greater than 100 µM against Genome polyprotein [2].
As for `CCN(CC)C[C@H]1CCCN(C(=O)Nc2ccc3c(c2)CNC3)C1`, the IC50 against Genome polyprotein [1] was greater than 99.5 µM; against Genome polyprotein [2], greater than 100 µM.
For `O=C(Nc1ccc2c(c1)CNC2)c1ccc2scnc2c1`, the IC50 at Genome polyprotein [1] is 23.2 µM and 10.6 µM; against Genome polyprotein [2], 41.5 µM and 45.1 µM.
As to `O=C(Nc1ccc2c[nH]nc2c1)c1cc(Cl)cc2[nH]ncc12`, the IC50 was greater than 99.5 µM on Genome polyprotein [1] and greater than 100 µM against Genome polyprotein [2].
For `Cn1ncc2c(C(=O)Nc3ccc4c(c3)CNC4)cc(C3CC3)nc21` the same measures were greater than 99.5 µM and greater than 100 µM.
For `COc1ccc(CN2Cc3cc(NC(=O)c4cc(Cl)cc5[nH]ncc45)cc(Br)c3C2)cc1` the same measures were greater than 99.5 µM and greater than 100 µM.
For `COCCc1ccnc(NC(=O)c2cc(C3CC3)n(C)c2C)c1` the same measures were greater than 99.5 µM and greater than 100 µM.
Take `CCCN1C(=O)[C@](Nc2ccc3c(c2)CNC3)(C(=O)NC)c2ccccc21`: the values for the IC50 at Genome polyprotein [1] and at Genome polyprotein [2] were greater than 99.5 µM and greater than 100 µM, respectively.
For `O=C(Nc1ccc2c(c1)CNC2)c1cc(Cl)cc2ccncc12` the same measures were greater than 99.5 µM and greater than 100 µM.
For `C[C@H]1CC2(CN1C(=O)Nc1ccc3c(c1)CNC3)CC(F)(F)C2` the same measures were greater than 99.5 µM and greater than 100 µM.
On to `O=C(Nc1ccc2c(c1)CNC2)N1CC[C@H](CC(F)(F)F)C1`, for which the IC50 on Genome polyprotein [1] is greater than 99.5 µM; against Genome polyprotein [2], greater than 100 µM.
For `O=C(Nc1ccc2c(c1)CNC2)N1CC(F)(F)CC2(CCC2)C1` the same measures were greater than 99.5 µM and greater than 100 µM.
For `NCCCc1ccnc(NC(=O)c2nnc(C3CC3)s2)c1` the same measures were greater than 99.5 µM and greater than 100 µM.
As to `O=C1Cc2c(cc(Br)cc2C(=O)Nc2ccc3c(c2)CNC3)N1`, the values for the IC50 against Genome polyprotein [1] and on Genome polyprotein [2] were greater than 99.5 µM and greater than 100 µM, respectively.
Regarding `N#C[C@H](Nc1ccc2c(c1)CNC2)c1cccc2c1CCNC2=O`, the IC50 against Genome polyprotein [1] is greater than 99.5 µM; on Genome polyprotein [2], greater than 100 µM.
As for `CC1([C@H]2CCCN(C(=O)Nc3ccc4c(c3)CNC4)C2)CC1`, the IC50 at Genome polyprotein [1] is greater than 99.5 µM; against Genome polyprotein [2] it was greater than 100 µM.
For `CCCN1C(=O)[C@](Nc2ccc3c(c2)CNC3)(C(=O)NC)c2cc(Cl)ccc21` the same measures were greater than 99.5 µM and greater than 100 µM.
For `O=C(Nc1ccc2c(c1)CNC2)[C@H]1C[C@@H]1c1ccccc1` the same measures were greater than 99.5 µM and greater than 100 µM.
For the compound `O=C(NCCCn1ccnc1)[C@H](Nc1ccc2c(c1)CNC2)c1cc(Cl)cc(C2CC2)c1`, the values for the IC50 against Genome polyprotein [1] and against Genome polyprotein [2] were greater than 99.5 µM and greater than 100 µM, respectively.
For `N#Cc1ccc(C(=O)Nc2ccc3c(c2)CNC3)cc1Cl` the same measures were greater than 99.5 µM and greater than 100 µM.
For `O=C1COc2cc(C(=O)Nc3ccc4c(c3)CNC4)ccc2N1` the same measures were greater than 99.5 µM and greater than 100 µM.
For `O=C(Nc1ccc2c(c1)CNC2)c1cncc2[nH]ncc12`, the IC50 against Genome polyprotein [1] was greater than 99.5 µM; at Genome polyprotein [2], greater than 100 µM.
Regarding `O=C(Nc1ccc2c(c1)CNC2)c1cc(F)c2[nH]ccc2c1`, the results for the IC50 at Genome polyprotein [1] and against Genome polyprotein [2] were greater than 99.5 µM and greater than 100 µM, respectively.
For `NCc1cc(Cl)cc(C(=O)Nc2ccc3c(c2)C(=O)OC3)c1` the same measures were greater than 99.5 µM and greater than 100 µM.
For `CC(C)(C)NC(=O)[C@H](Nc1ccc2c(c1)CNC2)c1cc(Cl)cc(C2CC2)c1` the same measures were greater than 99.5 µM and greater than 100 µM.
For `CCc1cnccc1-c1nc2c(C(=O)Nc3ccc4c(c3)CNC4)cc(Cl)cc2[nH]1`, the IC50 was greater than 99.5 µM on Genome polyprotein [1] and greater than 100 µM on Genome polyprotein [2].
Take `O=C(Nc1ccc2c(c1)CNC2)c1ccc2ncsc2c1`: the IC50 against Genome polyprotein [1] was greater than 99.5 µM; against Genome polyprotein [2], greater than 100 µM.
For `C[C@H](C1CC1)n1ncc2c(C(=O)Nc3ccc4c(c3)CNC4)cc(C3CC3)nc21` the same measures were greater than 99.5 µM and greater than 100 µM.

For the origin of these results see ChEMBL document CHEMBL5604063, “ASAP - DENV-2 NS2B-NS3 protease fluorescence dose response” (2024).
